Our source for the Ki and IC50 values is US20100286145A1, “ISOPHTHALAMIDE DERIVATIVES INHIBITING BETA-SECRETASE ACTIVITY” (CoMentis, Inc., priority 2007, published 2010).

Experiment [1] addresses memapsin 2 (Homo sapiens, UniProt P56817). Nature of the experiment: Inhibition of memapsin 2 beta-secretase activity (fluorogenic substrate FS-2). The experiment is classed as biochemical. As to conditions: memapsin 2, pH 4, 37° C., 20 minutes pre-incubation; read-out: M2Ki. Summed up:
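Kinetic fluorogenic assay: hydrolysis of the MCA/DNP-labelled APP Swedish-variant peptide FS-2 monitored as fluorescence rise at 37° C, pH 4, after 20 min enzyme–compound preincubation. Relative rates fitted with a tight-binding inhibitor model.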

The test system of experiment [2] is Aβ production in Chinese hamster ovary cells that over-express human APP695 with the London and Swedish mutations. Nature of the experiment: Cellular Aβ IC50 determination (Aβ40 sandwich ELISA). As to conditions: Cricetulus griseus; cellular Aβ production; read-out: IC50. The format is cell-based. Summed up: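 Aβ40 in media quantified by sandwich ELISA, normalized to control incubations and fitted with a 4-parameter IC50 model. Compounds dosed to a final concentration near 4 μM (0.4% DMSO) on CHO cells expressing human APP695 (London and Swedish mutants) seeded at 10% confluency.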

Some results are limits rather than exact numbers.

Chain of memapsin 2 (P56817 46-501): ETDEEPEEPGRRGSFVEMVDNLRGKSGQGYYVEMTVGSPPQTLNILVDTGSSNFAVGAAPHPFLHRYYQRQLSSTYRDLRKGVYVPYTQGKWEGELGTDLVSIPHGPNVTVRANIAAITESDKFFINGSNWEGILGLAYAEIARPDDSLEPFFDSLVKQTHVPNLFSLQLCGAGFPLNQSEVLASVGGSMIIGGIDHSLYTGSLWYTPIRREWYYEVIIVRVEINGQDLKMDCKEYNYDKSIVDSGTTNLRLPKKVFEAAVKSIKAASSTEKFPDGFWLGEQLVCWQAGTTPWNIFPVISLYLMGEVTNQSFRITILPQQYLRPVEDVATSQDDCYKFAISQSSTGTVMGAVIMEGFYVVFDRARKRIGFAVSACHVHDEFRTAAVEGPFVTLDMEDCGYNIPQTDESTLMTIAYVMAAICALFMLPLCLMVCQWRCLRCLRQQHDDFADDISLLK

What is called IC50 is the midpoint of a concentration-inhibition curve. As for `CNC(=O)c1cc(CNC[C@@H](O)[C@H](Cc2ccccc2)NC(=O)c2cccc(C(=O)N(C)Cc3nc(C)cs3)c2)cc(OC)c1` [Compound 112, N1-((2S,3R)-3-hydroxy-4-(3-methoxy-5-(methylcarbamoyl)benzylamino)-1-phenylbutan-2-yl)-N3-methyl-N3-((4-methylthiazol-2-yl)methyl)isophthalamide], the Ki in experiment [1] is less than 300 nM. Besides, the half-maximal inhibitory concentration (IC50) in experiment [2] was less than 1000 nM.

Take `C[C@@H](NC(=O)c1cc(C(=O)N[C@@H](Cc2ccccc2)[C@H](O)CNCc2cccc(C(=O)O)c2)cc(N(C)S(C)(=O)=O)c1)c1ccccc1` [Compound 113, 3-(((2R,3S)-2-hydroxy-3-(3-(N-methylmethylsulfonamido)-5-((R)-1-phenylethylcarbamoyl)benzamido)-4-phenylbutylamino)methyl)benzoic acid]: the Ki in experiment [1] was less than 300 nM. In addition, the half-maximal inhibitory concentration (IC50) in experiment [2] is less than 1000 nM.

On to `COC(=O)c1cc(CNC[C@@H](O)[C@H](Cc2ccccc2)NC(=O)c2cc(C(=O)N[C@H](C)c3ccccc3)cc(N(C)S(C)(=O)=O)c2)cc(OC)c1` [Compound 114, methyl 3-(((2R,3S)-2-hydroxy-3-(3-(N-methylmethylsulfonamido)-5-((R)-1-phenylethylcarbamoyl)benzamido)-4-phenylbutylamino)methyl)-5-methoxybenzoate], for which, in experiment [1], the Ki was less than 300 nM. The IC50 in experiment [2] is less than 1000 nM.

Consider `Cc1cccc(CNC[C@@H](O)[C@H](Cc2ccccc2)NC(=O)c2cccc(C(=O)N(C)Cc3nc(C)cs3)c2)n1` [Compound 115, N1-((2S,3R)-3-hydroxy-4-((6-methylpyridin-2-yl)methylamino)-1-phenylbutan-2-yl)-N3-methyl-N3-((4-methylthiazol-2-yl)methyl)isophthalamide], for which the Ki in experiment [1] is greater than 501 nM. In addition, the IC50 in experiment [2] is less than 1000 nM.

For `Cc1csc(CN(C)C(=O)c2cccc(C(=O)N[C@@H](Cc3ccccc3)[C@H](O)CNCc3cc(OCc4ccccc4)cc(C(C)C)c3)c2)n1` [Compound 116, N1-((2S,3R)-4-(3-(benzyloxy)-5-isopropylbenzylamino)-3-hydroxy-1-phenylbutan-2-yl)-N3-methyl-N3-((4-methylthiazol-2-yl)methyl)isophthalamide], the Ki in experiment [1] is less than 300 nM. Besides, the IC50 in experiment [2] was less than 1000 nM.

For `COc1cccc(CNC[C@@H](O)[C@H](Cc2ccccc2)NC(=O)c2cc(NO)cc(C(=O)N(C)Cc3nc(C)cs3)c2)c1` [Compound 117, N1-((2S,3R)-3-hydroxy-4-(3-methoxybenzylamino)-1-phenylbutan-2-yl)-5-(hydroxyamino)-N3-methyl-N3-((4-methylthiazol-2-yl)methyl)isophthalamide], the Ki in experiment [1] was less than 300 nM. In experiment [2], the IC50 is less than 1000 nM.

Take `Cc1csc(CN(C)C(=O)c2cccc(C(=O)N[C@@H](Cc3ccccc3)[C@H](O)CNCc3cnn(C(C)(C)C)c3C)c2)n1` [Compound 118, N1-((2S,3R)-4-((1-tert-butyl-5-methyl-1H-pyrazol-4-yl)methylamino)-3-hydroxy-1-phenylbutan-2-yl)-N3-methyl-N3-((4-methylthiazol-2-yl)methyl)isophthalamide]: the Ki in experiment [1] was greater than 501 nM. In addition, the IC50 in experiment [2] fell in the range of 1000 to 5000 nM.

Regarding `Cc1csc(CN(C)C(=O)c2cccc(C(=O)N[C@@H](Cc3ccccc3)[C@H](O)CNCc3cc(NS(C)(=O)=O)cc(C(C)C)c3)c2)n1` [Compound 119, N1-((2S,3R)-3-hydroxy-4-(3-isopropyl-5-(methylsulfonamido)benzylamino)-1-phenylbutan-2-yl)-N3-methyl-N3-((4-methylthiazol-2-yl)methyl)isophthalamide], the Ki in experiment [1] was less than 300 nM. In addition, the 50% inhibitory concentration (IC50) in experiment [2] was less than 1000 nM.

Regarding `COc1cccc(CNC[C@@H](O)[C@H](Cc2ccccc2)NC(=O)c2cc(CN=[N+]=[N-])cc(C(=O)N(C)Cc3nc(C)cs3)c2)c1` [Compound 121, 5-(azidomethyl)-N1-((2S,3R)-3-hydroxy-4-(3-methoxybenzylamino)-1-phenylbutan-2-yl)-N3-methyl-N3-((4-methylthiazol-2-yl)methyl)isophthalamide], the Ki in experiment [1] was less than 300 nM. For the same compound, the IC50 in experiment [2] is less than 1000 nM.
